Laboratory results reported in US20180312493A1, “Antibiotic Compounds, Pharmaceutical Formulations Thereof And Methods And Uses Therefor” (Simon Fraser University, priority 2015, published 2018).
≈ marks a conversion by molar mass, not a printed value.

Columns and labels:
MRSA Pyk = target: T1, MRSA Pyk (Staphylococcus aureus, UniProt Q6GG09); test: MRSA pyruvate kinase (PK) activity, continuous LDH-coupled assay; assay type: biochemical, methicillin resistant S. aureus (MRSA252)
T1 construct: made in house; host or cells: E. coli BL-21 (DE3)
In short: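 Activity monitored continuously as absorbance change at 340 nm from NADH oxidation via coupled lactate dehydrogenase, reactions started with 15 nM recombinant His-tagged PK (MRSA or human isoform) and run at 30° C for up to 5 min. Ki derived by varying inhibitor (0-400 nM) and PEP (2-20 mM) at 2 mM ADP; IC50 by four-parameter fitting.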

K. pneumoniae (C238) = test: In vitro susceptibility, broth microdilution (MIC); assay type: cell-based; conditions: Klebsiella pneumoniae; K. pneumoniae (C238); read-out: Antimicrobial activity (MIC) K. pneumoniae
In short: (§1)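 CLSI 2-fold serial broth microdilution; K. pneumoniae C238 grown in L-broth, S. aureus ATCC 29213 in Mueller Hinton broth, plates incubated 18–24 h at 37 °C. MIC taken as lowest concentration giving complete growth inhibition by OD600 versus compound-free wells, background-subtracted.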

S. aureus (ATCC29213) = test: In vitro susceptibility, broth microdilution (MIC); assay type: cell-based; conditions: Staphylococcus aureus; S. aureus ATCC29213; 18-24 h, 37 C; read-out: Antimicrobial activity (MIC) S. aureus ATCC29213
In short: as §1

VRE#2 (2010A) = test: In vitro susceptibility, broth microdilution (MIC); assay type: cell-based, vancomycin resistant Enterococci; conditions: VRE#2 (2010A); read-out: Antimicrobial activity (MIC) VRE#2
Text: (§2) Epidemic methicillin resistant S. aureus (MRSA) strain sequenced at the Sanger Centre (MRSA252, NRS71) was obtained from NARSA (Network on Antimicrobial Resistance in S. aureus). Methicillin sensitive S. aureus (ATCC 29213 and 25923), methicillin resistant S. aureus (ATCC BAA-1762), and Salmonella typhimurium (ATCC BAA-185) were obtained from ATCC, The Global Bioresource Center. Acinetobacter baumannii (ATCC 19606 and ATCC 17978), Klebsiella pneumonia (C238), vancomycin resistant Enterococci #2 (2010A) (VRE#2), MRSA (USA400, MW2) and Pseudomonas aeruginosa (PA0-1) were obtained from the laboratory of Dr B. B. Finlay at the University of British Columbia (Vancouver, Canada).
(§3) The antimicrobial activities of PK inhibitor candidates were determined using the 96-well microtiter standard 2-fold serial broth microdilution method as described by CLSI (formerly NCCLS) with the various gram-positive and gram-negative bacteria species mentioned above. Bacteria from a single colony were grown, overnight in either BHI Broth (VRE), mueller hinton broth (S. aureus 29213; MRSA USA400, A. baumannii 19606, MRSA BAA-1762) or L-broth (P. aeruginosa, S. typhimurium, K. pneumonia and A. baumannii 17978). Each compound was prepared in DMSO with 2-fold serial dilutions to give a final concentration of, 0.031 to 64 μg/ml. 10 μl of the compound solution was then added, in duplicate, to either, 190 μl of cation adjusted mueller hinton broth (CAMHB) or 190 μl CAMHB containing ˜2.5×10^5 CFU/ml of bacteria (final compound concentration 0.031 to 64 μg/ml). Culture plates were incubated for 18-24 h at 37° C., and optical density at 600 nm (OD600) was measured using a Benchmark Plus™ microplate spectrophotometer (Bio-Rad™). The absorbance control values for the series containing CAMHB and inhibitor were subtracted as background from the corresponding infected wells. Minimal inhibitory concentration (MIC) was defined as the lowest concentration of test compound leading to complete inhibition of cell growth in relation to compound-free control wells as determined by optical density. Vancomycin, methicillin and ciprofloxicin were used as reference compounds. All assays were run in triplicate or duplicate. Experiments were replicated at least twice to verify reproducibility using the above conditions.

[1] = test system: A. baumannii (ATCC 19606); test: In vitro susceptibility, broth microdilution (MIC); assay type: cell-based; conditions: Acinetobacter baumannii, ATCC19606; A. baumannii ATCC 19606 (values without asterisk); read-out: Antimicrobial activity (MIC) A. baumannii
Text: as §2, §3

MRSA (ATCC BAA-1762) = test: In vitro susceptibility, broth microdilution (MIC); assay type: cell-based, methicillin resistant S. aureus; conditions: Staphylococcus aureus; MRSA ATCC BAA-1762; read-out: Antimicrobial activity (MIC) MRSA ATCC BAA1762
Text: as §2, §3

T1 sequence (Q6GG09 whole entry): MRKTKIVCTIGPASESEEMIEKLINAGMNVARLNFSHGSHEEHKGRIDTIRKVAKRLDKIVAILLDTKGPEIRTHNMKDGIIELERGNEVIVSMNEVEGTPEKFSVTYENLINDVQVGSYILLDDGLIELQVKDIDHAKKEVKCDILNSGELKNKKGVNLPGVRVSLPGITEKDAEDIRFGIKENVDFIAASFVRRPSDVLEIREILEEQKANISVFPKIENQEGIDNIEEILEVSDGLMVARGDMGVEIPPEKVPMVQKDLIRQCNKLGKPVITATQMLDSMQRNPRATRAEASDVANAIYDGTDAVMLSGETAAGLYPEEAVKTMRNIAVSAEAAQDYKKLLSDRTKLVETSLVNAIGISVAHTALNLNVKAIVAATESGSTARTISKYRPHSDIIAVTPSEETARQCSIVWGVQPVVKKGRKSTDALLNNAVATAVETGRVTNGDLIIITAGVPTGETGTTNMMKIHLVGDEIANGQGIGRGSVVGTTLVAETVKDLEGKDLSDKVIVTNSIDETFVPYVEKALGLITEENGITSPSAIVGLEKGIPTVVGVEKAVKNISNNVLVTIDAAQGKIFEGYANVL

Compound `CN(Cc1ccccc1)c1c(CCc2ccc(Cl)cc2)[nH]c2cc(Br)ccc12` [Compound 98, N-benzyl-6-bromo-2-(4-chlorophenethyl)-N-methyl-1H-indol-3-amine] has an IC50 (MRSA Pyk) of 0.1 to 1 µM, an MIC (K. pneumoniae (C238)) of over 64 µg/mL and an MIC (S. aureus (ATCC29213)) of 32 µg/mL (≈ 70.5 µM).
`COCCNC(=O)CCCC(=O)c1c(-c2cc3cc(Cl)ccc3[nH]2)[nH]c2cc(Br)ccc12` [Compound 103, 5-(6-bromo-5′-chloro-1H,1′H-[2,2′-biindol]-3-yl)-N-(2-methoxyethyl)-5-oxopentanamide] was tested, and the IC50 (MRSA Pyk) was under 0.1 µM, the MIC (K. pneumoniae (C238)) was over 64 µg/mL and the MIC (S. aureus (ATCC29213)) was over 64 µg/mL.
For `O=C(CCCC(=O)c1c(-c2cc3cc(Cl)ccc3[nH]2)[nH]c2cc(Br)ccc12)NCCO` [Compound 104, 5-(6-bromo-5′-chloro-1H,1′H-[2,2′-biindol]-3-yl)-N-(2-hydroxyethyl)-5-oxopentanamide], the IC50 (MRSA Pyk) was under 0.1 µM, the MIC (K. pneumoniae (C238)) was over 64 µg/mL and the MIC (S. aureus (ATCC29213)) was over 64 µg/mL.
`O=C(CCCC(=O)c1c(-c2cc3cc(Cl)ccc3[nH]2)[nH]c2cc(Br)ccc12)Nc1ncn[nH]1` [Compound 105, 5-(6-bromo-5′-chloro-1H,1′H-[2,2′-biindol]-3-yl)-5-oxo-N-(1H-1,2,4-triazol-5-yl)pentanamide] gave an IC50 (MRSA Pyk) of under 0.1 µM, an MIC (K. pneumoniae (C238)) of over 64 µg/mL and an MIC (S. aureus (ATCC29213)) of over 64 µg/mL.
In the case of `Cc1nc2c(cc1-c1ccc(Cl)cc1)[nH]c1cc(Br)ccc12` [Compound 113, 7-bromo-3-(4-chlorophenyl)-2-methyl-5H-pyrido[3,2-b]indole], the IC50 (MRSA Pyk) is reported as under 0.1 µM, the MIC (K. pneumoniae (C238)) is reported as over 64 µg/mL and the MIC (S. aureus (ATCC29213)) is reported as over 64 µg/mL.
`NC(=O)N1CCCN(CCNC(=O)c2c(-c3cc4cc(Cl)ccc4[nH]3)[nH]c3cc(Br)ccc23)CC1` [Compound 128, 6-bromo-N-(2-(4-carbamoyl-1,4-diazepan-1-yl)ethyl)-5′-chloro-1H,1′H-2,2′-biindole-3-carboxamide] was tested, and the MIC (VRE#2 (2010A)) was over 64 µg/mL, the MIC (S. aureus (ATCC29213)) was over 64 µg/mL and the MIC [1] was over 64 µg/mL.
In the case of `O=C(Nc1nc2cc(Br)ccc2s1)NC1CCCCC1` [Compound 159, 1-(5-bromobenzo[d]thiazol-2-yl)-3-cyclohexylurea], the MIC (MRSA (ATCC BAA-1762)) is reported as 1 µg/mL (≈ 2.82 µM), the MIC (S. aureus (ATCC29213)) is reported as 2 µg/mL (≈ 5.65 µM) and the MIC [1] is reported as over 64 µg/mL.
Work on `Nc1ccc(NC(=O)Nc2nc3cc(Br)ccc3s2)cc1` [Compound 160, 1-(4-aminophenyl)-3-(5-bromobenzo[d]thiazol-2-yl)urea] yielded an MIC (MRSA (ATCC BAA-1762)) of 4 µg/mL (≈ 11 µM), an MIC (VRE#2 (2010A)) of 8 µg/mL (≈ 22 µM) and an MIC (S. aureus (ATCC29213)) of 4 µg/mL (≈ 11 µM). It also gave an MIC [1] of over 64 µg/mL.
`CN(C)CC(=O)Nc1ccc(NC(=O)Nc2nc3cc(Br)ccc3s2)cc1` [Compound 161, N-(4-(3-(5-bromobenzo[d]thiazol-2-yl)ureido)phenyl)-2-(dimethylamino)acetamide] was tested, and the MIC (MRSA (ATCC BAA-1762)) was 8 µg/mL (≈ 17.8 µM), the MIC (VRE#2 (2010A)) was 16 µg/mL (≈ 35.7 µM) and the MIC (S. aureus (ATCC29213)) was 16 µg/mL (≈ 35.7 µM). The MIC [1] was over 64 µg/mL.
For `O=C(Nc1ccc(Cl)cc1)Nc1nc2cc(F)ccc2s1` [Compound 166, 1-(4-chlorophenyl)-3-(5-fluorobenzo[d]thiazol-2-yl)urea], the MIC (MRSA (ATCC BAA-1762)) was 0.5 µg/mL (≈ 1.55 µM), the MIC (VRE#2 (2010A)) was 0.5 µg/mL (≈ 1.55 µM) and the MIC (S. aureus (ATCC29213)) was 1 µg/mL (≈ 3.11 µM). For the same compound, the MIC [1] was over 64 µg/mL.
Work on `O=C(Nc1ccc(Cl)cc1)Nc1nc2cc(Oc3ccccc3)ccc2s1` [Compound 168, 1-(4-chlorophenyl)-3-(5-phenoxybenzo[d]thiazol-2-yl)urea] yielded an MIC (MRSA (ATCC BAA-1762)) of 1 µg/mL (≈ 2.53 µM), an MIC (VRE#2 (2010A)) of 16 µg/mL (≈ 40.4 µM) and an MIC (S. aureus (ATCC29213)) of 1 µg/mL (≈ 2.53 µM). For the same compound, the MIC [1] was over 64 µg/mL.
`O=C(Nc1ccc(Cl)cc1)Nc1nc2cc(C(F)(F)F)ccc2s1` [Compound 169, 1-(4-chlorophenyl)-3-(5-(trifluoromethyl)benzo[d]thiazol-2-yl)urea] was tested, and the MIC (MRSA (ATCC BAA-1762)) was 0.5 µg/mL (≈ 1.34 µM), the MIC (VRE#2 (2010A)) was 2 µg/mL (≈ 5.38 µM) and the MIC (S. aureus (ATCC29213)) was 1 µg/mL (≈ 2.69 µM). For the same compound, the MIC [1] was over 64 µg/mL.
`CC(C)(C)NCCNC(=O)COc1cc2[nH]c(-c3cc4ccc(Br)cc4[nH]3)cc2cc1Cl` [Compound 193, 2-((6′-Bromo-5-chloro-1H,1′H-[2,2′-biindol]-6-yl)oxy)-N-(2-(tert-butylamino)ethyl)acetamide] showed an IC50 (MRSA Pyk) of under 0.1 µM, an MIC (S. aureus (ATCC29213)) of over 64 µg/mL and an MIC [1] of over 64 µg/mL.
For `NC(=O)Cn1c(-c2cc3ccc(Br)cc3[nH]2)nc2cc(Cl)c(Cl)cc21` [Compound 215, 2-(2-(6-Bromo-1H-indol-2-yl)-5,6-dichloro-1H-benzo[d]imidazol-1-yl)acetamide], the MIC (S. aureus (ATCC29213)) was over 64 µg/mL and the MIC [1] was over 64 µg/mL.
